Source: US4598076A, “2-pyrrolin-3-carbonitril-derivatives, pharmaceutical compositions containing them and their anti-inflammatory and ulcer protective activity” (Warner-Lambert Company, priority 1982, dated 1986)

Key:
[1] = tested on: carrageenin oedema in rats; test: Antiphlogistic action against carrageenin oedema in rats; type: in vivo, rats (SIV 50); conditions: for inhibition of the paw volume: 3 hours after carrageenin; for antiphlogistic properties (in words): carrageenin oedema
Method: The experimental animals used were male rats (SIV 50), fasting for 20 hours, with a body weight of 110 to 160 g. Water was available ad libitum. After determination of the initial value of the paw volume of the right hind leg, the test substance was administered intragastrally as a suspension in 1% tragacanth slurry. 10 animals were used per dosage group. The volume administered was 20 ml./kg. body weight. The paw volume was measured by means of mercury displacement. 60 minutes after intragastral administration of the test substances, 0.1 ml. of a 1% carrageenin solution was injected subplantarily into the right hind paw. 1 and 3 hours after injection of the carrageenin, the paw volume of the oedematous paw was measured. The increase of the paw volume of the test substance-treated animals after 3 hours was compared with that of the control animals and the inhibition of the paw oedema by the test substance was calculated therefrom as a percentage.

[2] = tested on: stomach ulcers in rats induced by indomethacin; test: Ulcer-protective action on stomach ulcers in rats induced by indomethacin; type: in vivo, rats (SIV 50); conditions: with 40 mg/kg indomethacin, 5 hours
Method: The experimental animals used were male rats (SIV 50), fasted for 20 hours, with a body weight of 170 to 220 g. Water was available ad libitum. The animals were simultaneously given intragastrally 40 mg./kg. indomethacin and the test substance in the form of a suspension in 0.8% "Methocel". The control animals only received the corresponding dosage of indomethacin. 10 animals were used for each experimental group. The volume administered was 10 ml./kg. body weight. 5 hours after administration, the animals were sacrificed. After removal of the stomach and opening along the curvatura major, this was investigated with a stereomagnifier for the presence of ulcers. […] The ulcer index of the animals treated with indomethacin and test substance was compared with that of the control animals which had only been treated with indomethacin and the ulcer inhibition calculated therefrom as a percentage.

[3] = Acute toxicity on mice (LD50, 7 day observation); conditions: mouse, in vivo, po; male NMRI mice, intragastral, 7 day observation
Method: (§1) The determination of the acute toxicity was carried out on male mice (NMRI) with a body weight of from 18 to 23 g. All the experimental animals fasted for 20 hours before commencement of the experiment. Water was available ad libitum. Each dosage grouping contained 4 animals. The dosage sequence was logarithmic. The test compounds were administered intragastrally as suspensions in 1% tragacanth slurry. The volume administered was 20 ml./kg. body weight.
(§2) The following Table gives the LD50 values after a 7 day observation period of the animals: […]

[4] = tested on: gastric juice secretion in rats; test: Influence on gastric juice secretion in rats (Shay, pyloric ligature); type: in vivo, rats (SIV 50); conditions: 4 hours after pyloric ligature
Method: According to the method described by H. Shay et al. (Gastroenterology, 5, 43-61/1945), male rats (SIV 50) with a body weight of 160 to 200 g. were fasted for 48 hours before commencement of the experiment. Water was available to the animals ad libitum. The test substances were administered intragastrally as a suspension in 1% tragacanth slurry. The volume administered was 10 ml./kg. body weight. 8 animals were used per experimental group. One hour after administration of the substance, a pyloric ligature was applied under light ether narcosis. 4 hours after this intervention, the animals were sacrificed. The extirpated stomach was opened up along the curvatura major and the volume of the secretion was measured and compared with the data obtained from the control group.

male mice (NMRI) = test: Acute toxicity on mice (LD50, 7 day observation); conditions: mouse, in vivo
Method: as §1, §2

CCN(CC)CCSC1=C(C#N)C(c2ccc(N(C)C)cc2)(c2cccnc2)C(=O)N1 (stereo not drawn) [Example 4a, 2-(2-diethylaminoethylthio)-4-(4-dimethylaminophenyl)-5-oxo-4-(3-pyridyl)-2-pyrrolin-3-carbonitril]
inhibition of the paw volume ([1]; 50 mg/kg intragastrally): 59%
inhibition of the paw volume ([1]; 100 mg/kg intragastrally): 77%
antiphlogistic properties (in words) [1]: most effective compounds
ulcer inhibition ([2]; 125 mg/kg intragastral): 84%
LD50 at 168 h [3]: 800 mg/kg
inhibition of gastric juice secretion ([4]; 62.5 mg/kg intragastral): 45%
inhibition of gastric juice secretion ([4]; 125 mg/kg intragastral): 64%
inhibition of gastric juice secretion ([4]; 250 mg/kg intragastral): 73%

CN(C)c1ccc(C2(c3cccnc3)C(=O)NC(SCCN3CCOCC3)=C2C#N)cc1 (stereo not drawn) [Example 4b, 4-(4-dimethylaminophenyl)-2-(2-morpholinoethylthio)-5-oxo-4-(3-pyridyl)-2-pyrroline-3-carbonitrile]
LD50 at 168 h [3]: 400 mg/kg
inhibition of gastric juice secretion ([4]; 50 mg/kg intragastral): 24%
inhibition of gastric juice secretion ([4]; 100 mg/kg intragastral): 63%
inhibition of gastric juice secretion ([4]; 200 mg/kg intragastral): 76%

CN(C)c1ccc(C2(c3cccnc3)C(=O)NC(SCCN3CCCCC3)=C2C#N)cc1 (stereo not drawn) [Example 4d, 4-(4-dimethylaminophenyl)-2-(2-piperidinoethylthio)-5-oxo-4-(3-pyridyl)-2-pyrroline-3-carbonitrile]
inhibition of the paw volume ([1]; 50 mg/kg intragastrally): 26%
inhibition of the paw volume ([1]; 125 mg/kg intragastrally): 83%
LD50 at 168 h [3]: 1600 mg/kg
inhibition of gastric juice secretion ([4]; 125 mg/kg intragastral): 48%
inhibition of gastric juice secretion ([4]; 250 mg/kg intragastral): 76%

CN(C)c1ccc(C2(c3cccnc3)C(=O)NC(SCCN3CCCC3)=C2C#N)cc1 (stereo not drawn) [Example 4e, 4-(4-dimethylaminophenyl)-2-(2-pyrrolidinoethylthio)-5-oxo-4-(3-pyridyl)-2-pyrroline-3-carbonitrile]
inhibition of the paw volume ([1]; 25 mg/kg intragastrally): 37%
inhibition of the paw volume ([1]; 50 mg/kg intragastrally): 70%
antiphlogistic properties (in words) [1]: most effective compounds
LD50 at 168 h [3]: > 1600 mg/kg

CN(C)CCSC1=C(C#N)C(c2ccc(N(C)C)cc2)(c2cccnc2)C(=O)N1 (stereo not drawn) [Example 4g, 2-(2-dimethylaminoethylthio)-4-(4-dimethylaminophenyl)-5-oxo-4-(3-pyridyl)-2-pyrroline-3-carbonitrile]
inhibition of the paw volume ([1]; 50 mg/kg intragastrally): 25%
inhibition of the paw volume ([1]; 100 mg/kg intragastrally): 61%
LD50 at 168 h [3]: 1600 mg/kg

CSC1=C(C#N)C(c2ccc(N(C)C)cc2)(c2cccnc2)C(=O)N1 (stereo not drawn) [Example 4i, 4-(4-dimethylaminophenyl)-2-methylthio-5-oxo-4-(3-pyridyl)-2-pyrroline-3-carbonitrile]
ulcer inhibition ([2]; 50 mg/kg intragastral): 88%
compatibility (in words) (male mice (NMRI)): good compatibility
LD50 at 168 h [3]: > 1600 mg/kg

CCN(CC)CCCSC1=C(C#N)C(c2ccc(N(C)C)cc2)(c2cccnc2)C(=O)N1 (stereo not drawn) [Example 4k, 2-(3-diethylaminopropylthio)-4-(4-dimethylaminophenyl)-5-oxo-4-(3-pyridyl)-2-pyrroline-3-carbonitrile]
ulcer inhibition ([2]; 50 mg/kg intragastral): 33%
ulcer inhibition ([2]; 100 mg/kg intragastral): 94%
LD50 at 168 h [3]: 300 mg/kg

N#CC1=C(SCCN2CCOCC2)NC(=O)C1(c1ccccc1)c1cccs1 (stereo not drawn) [Example 6c, 2-(2-morpholinoethylthio)-5-oxo-4-phenyl-4-(2-thienyl)-2-pyrroline-3-carbonitrile]
inhibition of the paw volume ([1]; 125 mg/kg intragastrally): 6%
inhibition of the paw volume ([1]; 250 mg/kg intragastrally): 45%
LD50 at 168 h [3]: > 1600 mg/kg

N#CC1=C(SCCN2CCCC2)NC(=O)C1(c1ccccc1)c1cccs1 (stereo not drawn) [Example 6f, 5-oxo-4-phenyl-2-(2-pyrrolidinoethylthio)-4-(2-thienyl)-2-pyrroline-3-carbonitrile]
inhibition of the paw volume ([1]; 125 mg/kg intragastrally): 24%
inhibition of the paw volume ([1]; 250 mg/kg intragastrally): 45%
LD50 at 168 h [3]: > 1600 mg/kg
